One may read the Ki as the dissociation constant of the complex between target and ligand, obtained from inhibition or displacement. One may read the EC50 as the midpoint of the concentration-response curve. A low value points to an effect from little substance.

Series [1] deals with T1, HCV genotype 3a NS3-NS4A protease (UniProt Q81258).
T1 construct: fused on or other part: 28 extra N-terminal residues with a hexahistidine tag and an rTEV cleavage site
T1 sequence (Q81258 1033-1663): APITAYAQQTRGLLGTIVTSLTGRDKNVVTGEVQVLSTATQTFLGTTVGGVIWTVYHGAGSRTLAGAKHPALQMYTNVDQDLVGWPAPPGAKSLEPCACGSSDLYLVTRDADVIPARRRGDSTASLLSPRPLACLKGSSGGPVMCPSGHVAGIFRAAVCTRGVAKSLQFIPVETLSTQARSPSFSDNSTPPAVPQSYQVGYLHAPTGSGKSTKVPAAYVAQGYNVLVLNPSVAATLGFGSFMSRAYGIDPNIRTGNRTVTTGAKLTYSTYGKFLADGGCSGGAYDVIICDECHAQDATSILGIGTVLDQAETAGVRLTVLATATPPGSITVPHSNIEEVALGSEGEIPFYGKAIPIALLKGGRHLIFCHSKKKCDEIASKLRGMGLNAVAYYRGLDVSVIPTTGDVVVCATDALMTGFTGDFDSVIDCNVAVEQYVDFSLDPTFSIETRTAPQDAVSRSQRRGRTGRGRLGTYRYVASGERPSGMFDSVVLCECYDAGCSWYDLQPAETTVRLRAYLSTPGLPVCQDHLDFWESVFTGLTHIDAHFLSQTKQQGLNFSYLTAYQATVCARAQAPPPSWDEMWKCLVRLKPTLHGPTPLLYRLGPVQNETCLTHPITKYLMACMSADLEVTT
Nature of the series: Inhibition constant (Ki) determination, genotype 3a. As to conditions: read-out: Ki HCV genotype 3a. Format: biochemical.

Series [2] has as its target T2, HCV genotype 1a NS3-NS4A protease (Hepatitis C virus genotype 1a, UniProt P27958).
T2 construct: Co-purification of mature NS3 and NS4A protein complex was verified by Western blot analysis; made in house; host or cells: Sf21 insect cells, recombinant baculovirus (pFastBac HTa)
Nature of the series: Inhibition constant (Ki) determination and mode of inhibition, steady-state velocity, genotype 1a. Format: biochemical. As for the experimental part: The fluorogenic depsipeptide substrate anthranilyl-D(d)EIVP-Nva[C(O)—O] AMY(3-N2)TW—OH (SEQ ID No.13) was used to assess the mechanism of inhibition and the inhibition constants of the compound (IV) against HCV NS3-NS4A proteases. It was cleaved between the norvaline and the alanine residues. The substrate working solution was prepared in DMSO at the concentration of 200 μM from the substrate stock solution (2 mM in DMSO stored at —20° C.). The final substrate concentration in the assay varied from 0.25 to 8 μM. The inhibition constant (Ki) for compound (IV) was determined using a steady-state velocity method (Morrisson et al. 1985). The protease activity was determined by monitoring the fluorescence change associated with the cleavage of the internally quenched fluorogenic substrate using a SLM-AMINCO® 8100 spectrofluorometer ([…]). The cleavage reaction was monitored in the presence of 0.25 to 8 μM of substrate, 0.3 nM of HCV 1a or 1b NS3-NS4A heterodimer protein and various concentrations of the test compound IV in 50 mM Tris-HCl, pH 8.0, 0.25M sodium citrate, 0.01% n-dodecyl-β-D-maltoside, 1 mM TCEP. The steady-state analysis of inhibition of the HCV genotype 1a and 1b NS3-NS4A heterodimer proteases were performed using the Dixon and Cornish-Bowden graphical methods. […]

For the next series, the system named is HCV replicon 1b. Put plainly: Cell-based HCV 1b RNA replicon assay. As to conditions: Hepatitis C virus, 72 h; Huh-7-derived replicon cells, 3 day incubation, HCV RNA by RT-PCR. As for the experimental part:
These cells were used to establish a sensitive HCV RNA replication cell-based assay for testing candidate test compounds.
Huh7 cells that stably maintain a subgenomic HCV replicon were established as previously described (Lohman et al. 1999; WO 02/052015). The cells were seeded into a 96 well cell culture cluster at 1×10^4 cells per well in DMEM complemented with 10% FBS, PenStrep (Life Technologies) and […] Geneticin. Cells were incubated in a 5% CO2 incubator at 37° C. until addition of various concentrations of the test compound.
The test compound was prepared for use in the assay as follows. The test compound in 100% DMSO was added diluted in assay Medium for a final DMSO concentration of 0.5% and the solution was sonicated for 15 min and filtered through a […] Millipore Filter Unit. Serial dilutions of the test compounds were prepared using Assay Medium (containing 0.5% DMSO).
Cell culture medium was aspirated from the 96-well plate containing the cells and the appropriate dilution of test compound in assay medium was transferred to independent wells of the cell culture plate which was incubated at 37° with 5% CO2.
Following a 3 day-incubation period, the cells were washed with PBS and total cellular RNA was extracted with the RNeasy Mini Kit® and Qiashredder® from Qiagen. RNA from each well was eluted in 50 μL of H2O. RNA was quantified by optical density at 260 nm on the Cary 1E® UV-Visible spectrophotometer. The HCV RNA replicon copy number was evaluated by real-time RT-PCR with the Abi Prism® 7700 Sequence Detection System. The TAQMAN E® RT-PCR kit provides a system for the detection and analysis of RNA. Direct detection of the reverse transcription polymerase chain reaction (RT-PCR) product with no downstream processing was accomplished by monitoring the increase in fluorescence of a dye-labeled DNA probe. The nucleotide sequence of both primers and probe was located in the 5′ region of the HCV genome. The replicon copy number was then evaluated using a standard curve made with known amounts of replicon copy (supplemented with 50 ng of wild type Huh-7 RNA) assayed in the same reaction mix. The following thermal cycle parameters were used for the RT-PCR reaction on the ABI Prism® 7700 Sequence Detection System. Conditions were optimized for HCV detection. Quantification is based on the threshold cycle, where the amplification plot crosses a defined fluorescence threshold. Comparison of the threshold cycles provides a highly sensitive measure of relative template concentration in different samples. Monitoring during early cycles, when PCR fidelity is at its highest, provides precise data for accurate quantification. The relative template concentration can be converted to real numbers by using the standard curve of HCV with known number of copy.
The level of inhibition (% inhibition) of each well containing test compound was calculated with the following equation (CN═HCV Replicon copy number): [formula]
The calculated % inhibition values were then used to determine EC50, slope factor (n) and maximum inhibition (Imax) by the non-linear regression routine NLIN procedure of SAS using the following equation: [formula]

Series [3] concerns HCV replicon-containing, Huh-7-derived cell lines. As to conditions: human.

T2 sequence (P27958 1027-1657): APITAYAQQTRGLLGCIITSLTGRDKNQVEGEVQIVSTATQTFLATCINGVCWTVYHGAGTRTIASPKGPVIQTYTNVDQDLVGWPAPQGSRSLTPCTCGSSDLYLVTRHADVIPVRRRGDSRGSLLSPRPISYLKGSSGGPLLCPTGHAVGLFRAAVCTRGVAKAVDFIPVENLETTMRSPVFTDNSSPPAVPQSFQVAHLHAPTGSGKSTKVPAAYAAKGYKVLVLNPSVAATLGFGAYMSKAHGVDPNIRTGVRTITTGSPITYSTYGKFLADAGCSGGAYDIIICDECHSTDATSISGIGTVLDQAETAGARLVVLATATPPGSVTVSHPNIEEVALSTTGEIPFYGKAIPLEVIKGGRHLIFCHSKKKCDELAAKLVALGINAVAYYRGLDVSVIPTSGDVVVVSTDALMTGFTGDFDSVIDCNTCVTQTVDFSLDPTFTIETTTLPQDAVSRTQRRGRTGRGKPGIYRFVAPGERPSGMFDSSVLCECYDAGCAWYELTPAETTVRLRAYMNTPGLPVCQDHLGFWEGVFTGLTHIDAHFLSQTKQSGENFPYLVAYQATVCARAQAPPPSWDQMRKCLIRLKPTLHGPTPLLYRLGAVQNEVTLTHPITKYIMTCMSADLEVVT
T2 sequence (P27958 1658-1711): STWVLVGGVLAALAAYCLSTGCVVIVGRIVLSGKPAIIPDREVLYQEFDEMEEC

Take `COc1ccc2c(O[C@@H]3C[C@H]4C(=O)N[C@]5(C(=O)O)CC5/C=C\CCCCC[C@H](NC(=O)OC5CCCC5)C(=O)N4C3)cc(-c3csc(NC(C)C)n3)nc2c1` (stereo partly shown) [IV]: the figures for the Ki in series [1] and in series [2] were 90 nM and 0.3 nM, respectively. In series [2] (Dixon and Cornish-Bowden plots, GraFit), the “mode of inhibition, HCV genotype 1a NS3-NS4A protease” value is given as “competitive”. Moreover, the EC50 in the series on HCV replicon 1b was 1 nM. In series [3], the “Cytotoxicity (concentration at which not observed)” value was “higher than 1000 nM”.
For `COc1ccc2c(O[C@@H]3C[C@H]4C(=O)N[C@]5(C(=O)O)CC5/C=C\CCCCC[C@H](NC(=O)OC(C)(C)C)C(=O)N4C3)cc(-c3csc(NC(C)=O)n3)nc2c1` (stereo partly shown) [III], the EC50 with HCV replicon 1b was found to be 4.7 nM.
Same read-out and setting: the same measure for `COc1ccc2c(O[C@@H]3C[C@H]4C(=O)N[C@]5(C(=O)O)CC5/C=C\CCCCC[C@H](NC(=O)OC(C)(C)C)C(=O)N4C3)cc(-c3ccccc3)nc2c1` (stereo partly shown) [II]: 27 nM.

The record behind these values is patent US20050159345A1 (Boehringer Ingelheim International GmbH, priority 2002, published 2005).
